Source: PubChem BioAssay (NCI)
Several values for one entry are separate records, joined by “and”; a condition that tells them apart may be missing. Identical values can stand only once.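 In this assay, cells in 96-well plates receive the compound at five concentrations for 48 hours. Endpoints are linearly interpolated between the surrounding concentrations. Here, GI50 denotes the concentration required for 50% inhibition of growth. TGI: concentration producing complete growth inhibition.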

What was measured:
Experiment in all cases: NCI-60 cell line screen, 48 h
NCI-H226 lung = system: NCI-H226 lung
MDA-N = system: MDA-N
UO-31 renal = system: UO-31 renal
OVCAR-5 ovarian = system: OVCAR-5 ovarian
HCT-15 colon = system: HCT-15 colon
MOLT-4 leukemia = system: MOLT-4 leukemia
SF-268 CNS = system: SF-268 CNS
HOP-62 NSCLC = system: HOP-62 NSCLC
SK-MEL-5 melanoma = system: SK-MEL-5 melanoma
NCI-H460 lung = system: NCI-H460 lung
NCI-H23 lung = system: NCI-H23 lung
HCC-2998 colon = system: HCC-2998 colon

Row | Structure (SMILES) | TGI (NCI-H226 lung) | TGI (MDA-N) | TGI (UO-31 renal) | TGI (OVCAR-5 ovarian) | TGI (HCT-15 colon) | TGI (MOLT-4 leukemia) | TGI (SF-268 CNS) | TGI (HOP-62 NSCLC) | TGI (SK-MEL-5 melanoma) | TGI (NCI-H460 lung) | TGI (NCI-H23 lung) | TGI (HCC-2998 colon) | GI50 (SF-268 CNS) | GI50 (HOP-62 NSCLC) | GI50 (NCI-H23 lung)
1 | CCOC(=O)c1nc2ccccc2nc1Oc1ccc(OC)cc1 | > 100 µM | > 100 µM | > 100 µM | > 100 µM | > 100 µM | > 100 µM | > 100 µM | > 100 µM | > 100 µM | > 100 µM | – | – | – | – | –
2 | N/C(COc1ccc(Cl)cc1)=N\NC(=O)c1ccncc1 | – | > 100 µM | – | > 100 µM | > 100 µM | > 100 µM | > 100 µM | > 100 µM | – | > 100 µM | > 100 µM | > 100 µM | – | – | –
3 | CC(C)CCCC(C)[C@H]1CC[C@H]2[C@@H]3CC[C@H]4C[C@@H](CCC=C(c5cc(Cl)c(O)c(C(=O)O)c5)c5cc(Cl)c(O)c(C(=O)O)c5)CC[C@]4(C)[C@H]3CC[C@]12C (stereo not given in full) (tested in a mixture with another compound) | > 50 µM | – | 27.2 µM | > 50 µM | > 50 µM | > 50 µM | > 50 µM | > 50 µM | > 50 µM | > 50 µM | > 50 µM | > 50 µM | – | – | –
4 | COc1cc(C2c3cc4c(cc3[C@@H](NCCCN(C)C)[C@H]3COC(=O)C23)OCO4)cc(OC)c1O (stereo not given in full) | – | – | 1.1 µM and 1.72 µM | 2.59 µM and 5.52 µM | 1.69 µM and 4.63 µM | 0.21 µM | 1.51 µM and 7.28 µM | 0.297 µM and 0.925 µM | 0.825 µM and 1.15 µM | 0.632 µM and 0.336 µM | 0.759 µM and 1.56 µM | 1.48 µM and 1.35 µM | 0.202 µM and 0.591 µM | 0.0933 µM and 0.271 µM | 0.139 µM and 0.291 µM
5 | CO/N=C(/C(=O)OC)c1ccccc1COc1cccc(C(F)(F)F)c1 | > 100 µM | > 100 µM | > 100 µM | > 100 µM | > 100 µM | 34.4 µM | > 100 µM | > 100 µM | 17.9 µM | > 100 µM | > 100 µM | – | – | – | –
6 | C=CCCCCCC(O)C(O)C/C=C\C/C=C\CC (stereo not given) | > 18.8 µM | – | > 18.8 µM | > 18.8 µM | > 18.8 µM | > 18.8 µM | > 18.8 µM | > 18.8 µM | > 18.8 µM | > 18.8 µM | > 18.8 µM | > 18.8 µM | – | – | –
7 | CCN(CC)CCC(=O)c1ccc(Oc2ccccc2)cc1 | > 100 µM | 30.1 µM | – | 46.4 µM | 35.6 µM | 48.4 µM | 55.9 µM | 77.4 µM | – | – | 78.5 µM | 35.6 µM | – | – | –
8 | CC1=NN(C(=O)c2ccccc2O)C(c2ccccc2Cl)C1C(=O)Nc1ccccc1 (stereo not given) | 8.02 µM | > 100 µM | – | > 43.7 µM | > 100 µM | > 85.7 µM | 30.8 µM | > 100 µM | 30.5 µM | > 53.1 µM | > 100 µM | > 100 µM | – | – | –
9 | CC(C)(c1ccc(OC#N)cc1)c1ccc(OC#N)cc1 | > 100 µM | – | > 100 µM | > 100 µM | 39.7 µM | > 100 µM | > 100 µM | > 100 µM | > 100 µM | > 82.4 µM | > 100 µM | > 100 µM | – | – | –
10 | CCOC(=O)/C=C/c1c[nH]c(C(=O)OCC)c1 | > 100 µM | – | > 100 µM | > 100 µM | > 100 µM | > 100 µM | > 100 µM | > 100 µM | > 100 µM | > 100 µM | > 100 µM | > 100 µM | – | – | –
11 | Cc1cc(C)c(NS(=O)c2cccc(Cl)c2)c(C)c1 (stereo not given) | > 100 µM | > 100 µM | > 100 µM | > 100 µM | > 100 µM | > 100 µM | > 100 µM | > 100 µM | – | > 100 µM | > 100 µM | – | – | – | –
12 | Nc1ccccc1OCc1cc(=O)c(OCc2ccccc2)co1 | – | > 100 µM | – | > 100 µM | > 100 µM | > 100 µM | > 100 µM | > 100 µM | > 100 µM | > 100 µM | > 100 µM | – | – | – | –
13 | O=S1c2ccccc2SCSc2ccccc21 | – | > 100 µM | > 100 µM | > 100 µM | > 100 µM | > 100 µM | > 100 µM | > 100 µM | > 100 µM | > 100 µM | > 100 µM | > 100 µM | – | – | –
14 | O=[N+]([O-])/C=C/COCc1cc2c(cc1Br)OCO2 | – | 32.8 µM | 32.3 µM | 34.3 µM | 34.3 µM | > 100 µM | 41.4 µM | 41.9 µM | 37.1 µM | > 100 µM | – | 34.2 µM | – | – | –
15 | CC(C)(C)c1cc(C(=O)/C=C/c2ccc3c(c2)CCO3)cc(C(C)(C)C)c1O | > 28.4 µM | – | > 54 µM | > 27.6 µM | > 25.9 µM | > 31.3 µM | 24.5 µM | > 93.7 µM | 6.65 µM | 1.92 µM | > 24.5 µM | 3.8 µM | – | – | –
16 | CC(C)c1nc2c(Cl)c3ncccc3cc2[nH]c1=O | > 100 µM | > 100 µM | > 100 µM | > 100 µM | > 100 µM | > 100 µM | > 100 µM | > 100 µM | > 100 µM | > 100 µM | > 100 µM | – | – | – | –
17 | O=Cc1ccc(-c2cccc([N+](=O)[O-])c2)s1 | > 100 µM | – | > 100 µM | > 100 µM | > 100 µM | > 100 µM | > 100 µM | > 100 µM | > 100 µM | > 100 µM | > 100 µM | > 100 µM | – | – | –
18 | Fc1ccc(Nc2nnc(-c3ccccn3)s2)cc1 | – | > 100 µM | – | > 100 µM | > 100 µM | > 100 µM | > 100 µM | > 100 µM | > 100 µM | > 100 µM | > 100 µM | – | – | – | –
19 | N#CC(NNC(=O)c1ccccc1O)c1ccccc1 (stereo not given) | 76.6 µM | – | 6.03 µM | > 100 µM | > 100 µM | > 100 µM | > 100 µM | > 100 µM | > 100 µM | > 100 µM | > 100 µM | – | – | – | –
20 | c1ccc2c3c([nH]c2c1)C1(CCCCC1)c1c([nH]c2ccccc12)C31CCCCC1 | 97.1 µM | – | > 100 µM | > 100 µM | > 100 µM | > 100 µM | 95.4 µM | 54.8 µM | 85.2 µM | > 100 µM | > 100 µM | 85.6 µM | – | – | –
